≈ marks a conversion by molar mass, not a printed value. Read-outs that look alike come from different tables or passages of the source.
Tests used:
Format in all cases: cell-based
[1] = tested on: Pseudomonas aeruginosa lacking OprM, plasmid with OprM (S104C); assay: Drug sensitivity (MIC), OprM (S104C)
Procedure: (§1) Mutant protein was prepared in which 20 amino acid residues were replaced by cysteine residues, respectively, in E1 and E2 domains of the amino acid sequence of mature OprM protein as above. First, OprM gene was introduced into pUCP20 as a vector. This vector is a shuttle vector which works in Escherichia coli and Pseudomonas aeruginosa. Specific mutation was introduced to OprM gene by using regular mutation introducing kit, and resultant vector was transformed into E. coli. The resultant E. coli was cultured to prepare plasmid, and the sequence of the plasmid was determined to confirm that the mutation was successfully introduced.
(§2) Next, the plasmid was introduced into the Pseudomonas aeruginosa lacking OprM, and the drug sensitivity of the resultant bacteria was determined to evaluate the pump function thereof. Drug sensitivity might be enhanced if the function of the pump was inhibited. Drug sensitivity was indicated by minimum inhibitory concentration (MIC). Aztreonam (AZT) (β-1 lactam antibiotic) and nalidixic acid (NA) (qunolone antibiotic) were used as drugs.

[2] = tested on: Pseudomonas aeruginosa lacking OprM, plasmid with OprM (G107C); assay: Drug sensitivity (MIC), OprM (G107C)
Procedure: as §1, §2

[3] = tested on: Pseudomonas aeruginosa lacking OprM, plasmid with OprM (wild type); assay: Drug sensitivity (MIC), OprM (wild type)
Procedure: as §1, §2

[4] = tested on: Pseudomonas aeruginosa lacking OprM, plasmid with OprM (A319C); assay: Drug sensitivity (MIC), OprM (A319C)
Procedure: as §1, §2

[5] = tested on: Pseudomonas aeruginosa lacking OprM, plasmid with OprM (D318C); assay: Drug sensitivity (MIC), OprM (D318C); settings: for resistance of the bacteria to the drug (in words): OprM (D318C) mutant vs wild type; for MIC: Pseudomonas aeruginosa, OprM (D318C)
Procedure: as §1, §2

[6] = tested on: Pseudomonas aeruginosa lacking OprM, plasmid with OprM (R311C); assay: Drug sensitivity (MIC), OprM (R311C); settings: for resistance of the bacteria to the drug (in words): OprM (311C) mutant vs wild type; for MIC: Pseudomonas aeruginosa, OprM (R311C)
Procedure: as §1, §2

[7] = tested on: Pseudomonas aeruginosa lacking OprM, plasmid with OprM (L103C); assay: Drug sensitivity (MIC), OprM (L103C)
Procedure: as §1, §2

[8] = tested on: Pseudomonas aeruginosa lacking OprM, plasmid with OprM (P109C); assay: Drug sensitivity (MIC), OprM (P109C); settings: for MIC: Pseudomonas aeruginosa, OprM (P109C)
Procedure: as §1, §2

[9] = tested on: Pseudomonas aeruginosa lacking OprM, plasmid with OprM (D102C); assay: Drug sensitivity (MIC), OprM (D102C)
Procedure: as §1, §2

[10] = tested on: Pseudomonas aeruginosa lacking OprM, plasmid with OprM (T106C); assay: Drug sensitivity (MIC), OprM (T106C)
Procedure: as §1, §2

[11] = tested on: Pseudomonas aeruginosa lacking OprM, plasmid with OprM (S314C); assay: Drug sensitivity (MIC), OprM (S314C)
Procedure: as §1, §2

[12] = tested on: Pseudomonas aeruginosa lacking OprM, plasmid with OprM (Q312C); assay: Drug sensitivity (MIC), OprM (Q312C)
Procedure: as §1, §2

[13] = tested on: Pseudomonas aeruginosa lacking OprM, plasmid with OprM (L313C); assay: Drug sensitivity (MIC), OprM (L313C)
Procedure: as §1, §2

[14] = tested on: Pseudomonas aeruginosa lacking OprM, plasmid with OprM (G320C); assay: Drug sensitivity (MIC), OprM (G320C)
Procedure: as §1, §2

[15] = tested on: Pseudomonas aeruginosa lacking OprM, plasmid with OprM (T105C); assay: Drug sensitivity (MIC), OprM (T105C)
Procedure: as §1, §2

[16] = tested on: Pseudomonas aeruginosa lacking OprM, plasmid with OprM (G101C); assay: Drug sensitivity (MIC), OprM (G101C)
Procedure: as §1, §2

[17] = tested on: Pseudomonas aeruginosa lacking OprM, plasmid with OprM (F317C); assay: Drug sensitivity (MIC), OprM (F317C)
Procedure: as §1, §2

[18] = tested on: Pseudomonas aeruginosa lacking OprM, plasmid with OprM (G315C); assay: Drug sensitivity (MIC), OprM (G315C)
Procedure: as §1, §2

[19] = tested on: Pseudomonas aeruginosa lacking OprM, plasmid with OprM (P100C); assay: Drug sensitivity (MIC), OprM (P100C)
Procedure: as §1, §2

[20] = tested on: Pseudomonas aeruginosa lacking OprM, plasmid with OprM (L316C); assay: Drug sensitivity (MIC), OprM (L316C)
Procedure: as §1, §2

[21] = tested on: Pseudomonas aeruginosa lacking OprM, plasmid with OprM (S108C); assay: Drug sensitivity (MIC), OprM (S108C)
Procedure: as §1, §2

Structure (SMILES): C[C@H]1[C@H](NC(=O)/C(=N\OC(C)(C)C(=O)O)c2csc(N)n2)C(=O)N1S(=O)(=O)O [AZT, aztreonam]
- MIC ([1]; read-out: MIC for AZT): 3.13 µg/mL (≈ 7.19 µM)
- MIC ([2]; read-out: MIC for AZT): 3.13 µg/mL (≈ 7.19 µM)
- MIC ([3]; read-out: MIC for AZT): 3.13 µg/mL (≈ 7.19 µM)
- MIC ([4]; read-out: MIC for AZT): 1.54 µg/mL (≈ 3.54 µM)
- resistance of the bacteria to the drug (in words) [5]: markedly reduced resistance
- MIC ([5]; read-out: MIC for AZT): 0.39 µg/mL (≈ 0.896 µM)
- resistance of the bacteria to the drug (in words) [6]: markedly reduced resistance
- MIC ([6]; read-out: MIC for AZT): 0.39 µg/mL (≈ 0.896 µM)
- MIC ([7]; read-out: MIC for AZT): 3.13 µg/mL (≈ 7.19 µM)
- MIC ([8]; read-out: MIC for AZT): 3.13 µg/mL (≈ 7.19 µM)
- MIC ([9]; read-out: MIC for AZT): 3.13 µg/mL (≈ 7.19 µM)
- MIC ([10]; read-out: MIC for AZT): 3.13 µg/mL (≈ 7.19 µM)
- MIC ([11]; read-out: MIC for AZT): 3.13 µg/mL (≈ 7.19 µM)
- MIC ([12]; read-out: MIC for AZT): 0.78 µg/mL (≈ 1.79 µM)
- MIC ([13]; read-out: MIC for AZT): 3.13 µg/mL (≈ 7.19 µM)
- MIC ([14]; read-out: MIC for AZT): 1.54 µg/mL (≈ 3.54 µM)
- MIC ([15]; read-out: MIC for AZT): 3.13 µg/mL (≈ 7.19 µM)
- MIC ([16]; read-out: MIC for AZT): 3.13 µg/mL (≈ 7.19 µM)
- MIC ([17]; read-out: MIC for AZT): 1.54 µg/mL (≈ 3.54 µM)
- MIC ([18]; read-out: MIC for AZT): 0.78 µg/mL (≈ 1.79 µM)
- MIC ([19]; read-out: MIC for AZT): 3.13 µg/mL (≈ 7.19 µM)
- MIC ([20]; read-out: MIC for AZT): 3.13 µg/mL (≈ 7.19 µM)
- MIC ([21]; read-out: MIC for AZT): 3.13 µg/mL (≈ 7.19 µM)

Structure (SMILES): CCn1cc(C(=O)O)c(=O)c2ccc(C)nc21 [NA, nalidixic acid]
- MIC ([1]; read-out: MIC for NA): 50 µg/mL (≈ 215 µM)
- MIC ([2]; read-out: MIC for NA): 50 µg/mL (≈ 215 µM)
- MIC ([3]; read-out: MIC for NA): 50 µg/mL (≈ 215 µM)
- MIC ([4]; read-out: MIC for NA): 50 µg/mL (≈ 215 µM)
- resistance of the bacteria to the drug (in words) [5]: did not reduce resistance
- MIC ([5]; read-out: MIC for NA): 25 µg/mL (≈ 108 µM)
- resistance of the bacteria to the drug (in words) [6]: markedly reduced resistance
- MIC ([6]; read-out: MIC for NA): 6.25 µg/mL (≈ 26.9 µM)
- MIC ([7]; read-out: MIC for NA): 50 µg/mL (≈ 215 µM)
- drug sensitivity of the bacteria (in words) ([8]; OprM (P109C) mutant vs wild type): enhanced drug sensitivity
- MIC ([8]; read-out: MIC for NA): 3.13 µg/mL (≈ 13.5 µM)
- MIC ([9]; read-out: MIC for NA): 50 µg/mL (≈ 215 µM)
- MIC ([10]; read-out: MIC for NA): 50 µg/mL (≈ 215 µM)
- MIC ([11]; read-out: MIC for NA): 50 µg/mL (≈ 215 µM)
- MIC ([12]; read-out: MIC for NA): 25 µg/mL (≈ 108 µM)
- MIC ([13]; read-out: MIC for NA): 50 µg/mL (≈ 215 µM)
- MIC ([14]; read-out: MIC for NA): 50 µg/mL (≈ 215 µM)
- MIC ([15]; read-out: MIC for NA): 50 µg/mL (≈ 215 µM)
- MIC ([16]; read-out: MIC for NA): 50 µg/mL (≈ 215 µM)
- MIC ([17]; read-out: MIC for NA): 50 µg/mL (≈ 215 µM)
- MIC ([18]; read-out: MIC for NA): 25 µg/mL (≈ 108 µM)
- MIC ([19]; read-out: MIC for NA): 50 µg/mL (≈ 215 µM)
- MIC ([20]; read-out: MIC for NA): 50 µg/mL (≈ 215 µM)
- MIC ([21]; read-out: MIC for NA): 50 µg/mL (≈ 215 µM)

Source: patent US7985410B2, “Method or agent for inhibiting the function of efflux pump Pseudomonas aeruginosa” (Tokai University, priority 2006, dated 2011)
